The results in this text go back to ChEMBL document CHEMBL4715890, “Flavonoids from Sophora alopecuroides L. improve palmitate-induced insulin resistance by inhibiting PTP1B activity in vitro” (Bioorg Med Chem Lett, 2021).

Series [1] deals with C2C12. The series is described as follows: Cytotoxicity against mouse C2C12 cells assessed as reduction in cell viability by MTT assay. The series is classed as cell-based. As to conditions: for IC50: Mus musculus, C2C12; for IC10: mouse, c2c12. On the technique in general: Tetrazolium assays rely on reduction of a dye to a coloured formazan, in cell work by metabolically active cells.

Series [2] deals with C2C12. The series is described as follows: Induction of glucose uptake in mouse C2C12 cells at 1 ug/ml in presence of insulin. The class given is functional, cell-based. The note with it: dose 1.0 µg/ml.
Series [3] deals with T1, Tyrosine-protein phosphatase non-receptor type 1 (Mus musculus) (UniProt P35821).
T1 sequence (whole entry): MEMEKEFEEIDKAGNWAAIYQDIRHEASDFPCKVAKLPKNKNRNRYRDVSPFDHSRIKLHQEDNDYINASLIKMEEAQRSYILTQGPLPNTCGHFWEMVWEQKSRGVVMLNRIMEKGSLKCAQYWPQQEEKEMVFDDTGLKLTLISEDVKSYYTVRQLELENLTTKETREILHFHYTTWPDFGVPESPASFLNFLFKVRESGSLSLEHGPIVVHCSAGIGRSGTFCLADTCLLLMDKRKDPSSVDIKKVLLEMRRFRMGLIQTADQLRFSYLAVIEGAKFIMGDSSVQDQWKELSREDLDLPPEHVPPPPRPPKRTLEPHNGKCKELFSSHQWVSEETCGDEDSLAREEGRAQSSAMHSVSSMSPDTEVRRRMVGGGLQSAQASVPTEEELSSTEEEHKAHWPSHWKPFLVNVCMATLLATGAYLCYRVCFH
In words: Inhibition of PTP1B in mouse PA-induced insulin-resistance C2C12 cells assessed as increase in glucose consumption at 1 ug/ml in presence of insulin after 16 hrs. The series is classed as cell-based. The note with it: dose 1.0 µg/ml.

Series [4] addresses T2, Tyrosine-protein phosphatase non-receptor type 1 (Homo sapiens) (UniProt P18031).
T2 sequence (whole entry): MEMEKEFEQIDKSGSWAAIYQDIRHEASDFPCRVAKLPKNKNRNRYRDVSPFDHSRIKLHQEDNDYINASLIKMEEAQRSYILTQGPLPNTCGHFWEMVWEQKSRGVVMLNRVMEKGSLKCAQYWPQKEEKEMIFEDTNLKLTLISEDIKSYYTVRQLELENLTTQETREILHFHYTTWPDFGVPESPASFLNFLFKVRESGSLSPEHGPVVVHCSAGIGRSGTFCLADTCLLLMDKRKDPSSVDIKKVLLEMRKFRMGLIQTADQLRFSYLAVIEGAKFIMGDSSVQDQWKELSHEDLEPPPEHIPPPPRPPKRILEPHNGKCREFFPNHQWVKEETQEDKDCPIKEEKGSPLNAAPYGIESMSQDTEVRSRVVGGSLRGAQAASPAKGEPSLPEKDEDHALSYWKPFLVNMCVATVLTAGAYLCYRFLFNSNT
In words: Inhibition of PTP1B (unknown origin) at 0.1 ug/ml relative to control. The note with it: dose 0.1 µg/ml.

Series [5] relates to C2C12. In words: Induction of glucose uptake in mouse C2C12 cells at 1 ug/ml. The class given is functional, cell-based.

Values after ≈ are worked out from the molar mass of the structure shown. Active and inactive are the calls of the source. The calls are words filed in the database; no cut-off is given here.

In general, IC50 refers to the point on the concentration scale where inhibition reaches its midpoint. As a reminder, the IC10 is the point of the concentration-response curve where the effect stands at 10%. The inhibition is the change of the read-out against control, counted positive when it falls. Consider `COc1cc(O)c2c(=O)c(-c3ccc(O)c(OC)c3)coc2c1`, for which, in the series on C2C12 [1], the IC50 was determined as 32.5 µg/mL (≈ 103 µM). For the same compound, the IC10 with C2C12 [1] was determined as 6.93 µg/mL (≈ 22 µM). For the same compound, the outcome in the series on C2C12 [2] and in the series on C2C12 [5] was Active. Moreover, the Glucose consumption increase result in series [3] was “Active”. The inhibition in series [4] was 70.1%.
Turning to `O=c1cc(-c2ccc(O)c(O)c2)oc2cc(O[C@@H]3O[C@H](CO)[C@@H](O)[C@H](O)[C@H]3O)ccc12`, in the series on C2C12 [1], the 50% inhibitory concentration (IC50) came to 40 µg/mL (≈ 92.6 µM) and the IC10 amounted to 10.07 µg/mL (≈ 23.3 µM). The outcome in the series on C2C12 [2] was Active. For the same compound, in series [3], the Glucose consumption increase result is “Active”. Also, in series [4], the inhibition stood at 68.9%. In the series with C2C12 [5], the result was Active.
Take `O=C(/C=C/c1ccc(O)cc1)c1ccc(O)cc1O` [ISOLIQUIRITIGENIN]: in the series with C2C12 [1], the half-maximal inhibitory concentration (IC50) was 26.3 µg/mL (≈ 103 µM) and the concentration for an effect of 10% (IC10) came out at 7.43 µg/mL (≈ 29 µM). The result in the series on C2C12 [2] was Active. Also, the result in the series with C2C12 [5] was Active.
For `O=c1cc(-c2ccc(O[C@@H]3O[C@H](CO)[C@@H](O)[C@H](O)[C@H]3O)c(O)c2)oc2cc(O)ccc12`, in the series with C2C12 [1], the IC50 was 29 µg/mL (≈ 67.1 µM) and the IC10 stood at 5.85 µg/mL (≈ 13.5 µM). The result with C2C12 [2] was Active. Also, the Glucose consumption increase entry in series [3] is “Active”. The inhibition in series [4] stood at 68.9%. The outcome in the series on C2C12 [5] was Active.
As to `O=C(/C=C/c1ccccc1)c1ccc(O)cc1O` [2',4'-DIHYDROXYCHALCONE], in the series with C2C12 [1], the IC50 came out at 32.3 µg/mL (≈ 134 µM) and the concentration for an effect of 10% (IC10) was 6.14 µg/mL (≈ 25.6 µM). In the series with C2C12 [2], the outcome was Active. Besides, the result in the series with C2C12 [5] was Active.
As to `O=c1c(-c2ccc(O)cc2)coc2cc(O[C@@H]3O[C@H](CO[C@@H]4OC[C@@H](O)[C@H](O)[C@H]4O)[C@@H](O)[C@H](O)[C@H]3O)cc(O)c12`, in the series on C2C12 [1], the 50% inhibitory concentration (IC50) is 34.2 µg/mL (≈ 60.5 µM) and the 10% effect concentration (IC10) was 6.07 µg/mL (≈ 10.8 µM). Moreover, the result in the series on C2C12 [2] was Active. The Glucose consumption increase entry in series [3] was “Active”. For the same compound, the inhibition in series [4] was 88.8%. The outcome in the series on C2C12 [5] was Active.
On to `O=c1c(-c2ccc3c(c2)OCO3)coc2cc(O)ccc12` [PSEUDOBAPTOGENIN], for which, in the series with C2C12 [1], the IC50 turned out to be 12.1 µg/mL (≈ 42.8 µM) and the concentration for an effect of 10% (IC10) was 3.49 µg/mL (≈ 12.4 µM). Moreover, the outcome with C2C12 [2] was Active. The Glucose consumption increase result in series [3] is “Active”. The outcome with C2C12 [5] was Active.
Take `COc1cc(/C=C/C(=O)OC[C@H]2O[C@@H](Oc3ccc4c(=O)c(-c5ccc(O)c(O)c5)coc4c3)[C@H](O)[C@@H](O)[C@@H]2O)ccc1O`: the half-inhibitory concentration (IC50) with C2C12 [1] was determined as 24.3 µg/mL (≈ 40 µM). The 10% effect concentration (IC10) with C2C12 [1] worked out at 7.36 µg/mL (≈ 12.1 µM). Moreover, the result with C2C12 [2] and with C2C12 [5] was Active. In series [3], the Glucose consumption increase entry is “Active”. In series [4], this compound came in with an inhibition of 95.2%.
On to `O=c1c(-c2ccc3c(c2)OCO3)coc2cc(O[C@@H]3O[C@H](CO)[C@@H](O)[C@H](O)[C@H]3O)ccc12`, for which, in the series on C2C12 [1], the 50% inhibitory concentration (IC50) is 13.5 µg/mL (≈ 30.3 µM) and the concentration for an effect of 10% (IC10) came out at 4.18 µg/mL (≈ 9.41 µM).
As to `O=c1cc(-c2ccc(O)cc2)oc2cc(O)cc(O)c12` [APIGENIN], in the series with C2C12 [1], the concentration for half-maximal inhibition (IC50) came out at 26.6 µg/mL (≈ 98.4 µM). Further, the IC10 in the series with C2C12 [1] was determined as 4.96 µg/mL (≈ 18.4 µM). Besides, the outcome in the series with C2C12 [2] and in the series with C2C12 [5] was Active.
Consider `O=C(/C=C/c1ccc(O)c(O)c1)c1ccc(O[C@@H]2O[C@H](CO)[C@@H](O)[C@H](O)[C@H]2O)cc1O`, for which, in the series on C2C12 [1], the IC50 was 20.8 µg/mL (≈ 47.9 µM) and the IC10 was 4.39 µg/mL (≈ 10.1 µM).
Regarding `O=C(/C=C/c1ccc(O)c(O)c1)c1ccc(O)cc1O` [BUTEIN], in the series on C2C12 [1], the half-maximal inhibitory concentration (IC50) worked out at 19 µg/mL (≈ 69.8 µM) and the IC10 was 3.99 µg/mL (≈ 14.7 µM).
For the compound `COc1cc(O)c2c(=O)c(-c3ccc(O)cc3)coc2c1` [PRUNETIN], in the series with C2C12 [1], the IC50 worked out at 23.2 µg/mL (≈ 81.8 µM) and the IC10 worked out at 7.19 µg/mL (≈ 25.3 µM). Also, the outcome with C2C12 [2] was Active. Moreover, in series [3], the Glucose consumption increase result is “Active”. Also, the result with C2C12 [5] was Active.
Turning to `O=c1c(O)c(-c2ccc(O)c(O)c2)oc2cc(O)cc(O)c12` [QUERCETIN], in the series on C2C12 [1], the concentration for half-maximal inhibition (IC50) amounted to 30.8 µg/mL (≈ 102 µM) and the IC10 came out at 9.23 µg/mL (≈ 30.5 µM).
The corresponding values for `COc1ccc(-c2cc(=O)c3c(O)cc(O[C@@H]4O[C@H](CO[C@@H]5O[C@@H](C)[C@H](O)[C@@H](O)[C@H]5O)[C@@H](O)[C@H](O)[C@H]4O)cc3o2)cc1O` [DIOSMIN] are 20 µg/mL (≈ 32.8 µM) and 5.14 µg/mL (≈ 8.45 µM).
Regarding `O=C(/C=C/c1ccc(O)c(O)c1)OC[C@H]1O[C@@H](Oc2ccc3c(=O)c(-c4ccc(O)cc4)coc3c2)[C@H](O)[C@@H](O)[C@@H]1O`, in the series on C2C12 [1], the IC50 was determined as 31.2 µg/mL (≈ 54 µM) and the IC10 stood at 8.81 µg/mL (≈ 15.2 µM). For the same compound, the outcome in the series on C2C12 [2] was Active. The Glucose consumption increase result in series [3] is “Active”. The inhibition in series [4] is 81.6%. The outcome with C2C12 [5] was Active.
